These results are taken from patent publication US11981711B2, “Methods of treating spinal cord injury using a chondroitin sulfate proteoglycan (CSPG) reduction peptide (CRP) comprising a cell membrane penetrating domain, a CSPG binding domain, and a lysosome targeting domain” (The Cleveland Clinic Foundation, priority 2017, dated 2024).

In assay [1] the test system is spinal cord injury (SCI). Briefly: Urodynamic analyses (CMG, EUS EMG) after T8 contusive SCI, SRP treatment. The format is in vivo, rat. Conditions: 3 months post-SCI. The protocol:
(§1) In this Example, the SRP has been applied in a preclinical rat model to test the efficacy of the treatment of spinal cord injury (SCI) in a manner similar to Example 1 above for CRP.
Animals were treated daily with SRP for one month, beginning one day after SCI. Urodynamic analyses were conducted 3 months post-SCI. […] EUS EMG recording were conducted 3 months post-SCI.

Assay [2] deals with TBK1 and mitophagy adaptors. Nature of the assay: TBK1 and mitophagy adaptors in spinal cord after SCI, SRP treatment. It counts as in vivo, rat. Particulars: vs scrambled peptide. The text has this: (A). Graphs represented mean±SEM of six samples per group for the % to GAPDH (B). *p<0.05, **p<0.01 and ***p<0.001 compared to scrambled peptide animals (two-tailed t test, n=3 per group).

Assay [3] concerns the target T1, SOCS3 (Rattus norvegicus, UniProt O88583).
T1 sequence (O88583 1-225): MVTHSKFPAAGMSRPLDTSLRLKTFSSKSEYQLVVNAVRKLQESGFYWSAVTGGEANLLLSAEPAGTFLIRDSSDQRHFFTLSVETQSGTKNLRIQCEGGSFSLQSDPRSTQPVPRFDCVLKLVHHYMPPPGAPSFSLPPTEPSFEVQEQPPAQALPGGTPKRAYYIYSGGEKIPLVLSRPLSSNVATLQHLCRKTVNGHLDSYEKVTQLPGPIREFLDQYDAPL
Briefly: SOCS3 protein level in spinal cord after SCI, SRP treatment. The format is in vivo. Also noted: from tissue; host or cells: rat spinal cord (epicenter and caudal segments). Particulars: 7 days after SCI; once per day beginning one day after SCI; vs scrambled peptide.
Description: as §1
(§2) Graphs represent mean±SEM of five samples per group for the ratios of SOCS3 to actin (B) and p-STAT3 to STAT3 (C). +p<0.05, ++p<0.01, and +++p<0.001 compared to normal animals, and *p<0.05 and ***p<0.001 compared to scrambled peptide animals (two way ANOVA with Bonferroni multiple analyses).

The subject of another assay is arginase 1, iNOS, TNF-α. Nature of the assay: qRT-PCR of markers for pro- vs. anti-inflammatory macrophages in spinal cord segments caudal to injury. The format is in vivo, rat. Particulars: vs scrambled peptide. Here is the method: Rats were treated once per day beginning one day after SCI with SRP or scrambled peptide (scr) and mRNA was then harvested and analyzed by qRT-PCR. […] C.

Assay [4] addresses T1, SOCS3. Briefly: SOCS3 level in sciatic nerve after sciatic nerve transection, SRP treatment. The format is in vivo. Details: from tissue; host or cells: sciatic nerve. Particulars: once per day for 4 consecutive days beginning immediately after transection; vs scrambled peptide.
Assay [5] concerns ED1+macrophages/microglia. Briefly: Double immunolabeling of ED1 and GFAP in spinal cord after SCI, SRP treatment. The format is in vivo, rat. Conditions: three months post-SCI, vs scrambled peptide. Here is the method: SRP treatment beginning one day after SCI was administered for 30 consecutive days and then spinal cords were harvested three months post-SCI for double immunolabeling of ED1 and GFAP.

The test system of a further assay is STAT3. Briefly: STAT3 activation (phospho-STAT3 Tyr705) in spinal cord after SCI, SRP treatment. It counts as in vivo, rat. Conditions: 7 days after SCI; once per day beginning one day after SCI.
Description: as §2

In assay [6] the test system is spinal cord injury (SCI). Briefly: BBB open field locomotion test after T8 contusive SCI, SRP treatment. It counts as in vivo, rat. Particulars: subcutaneous daily for one month beginning one day after SCI; vs scrambled peptide; entire observation period.
Description: as §1
Animals were subcutaneously injected with SRP daily for one month beginning one day after SCI and assessed by the BBB open field locomotion test to evaluate hind limb motor function at the designated time points. […] Values represent mean±SEM.

The next assay concerns the target T2, SOCS1 (Rattus norvegicus, UniProt Q9QX78).
T2 construct: from tissue; host or cells: rat spinal cord
T2 sequence (Q9QX78 1-212): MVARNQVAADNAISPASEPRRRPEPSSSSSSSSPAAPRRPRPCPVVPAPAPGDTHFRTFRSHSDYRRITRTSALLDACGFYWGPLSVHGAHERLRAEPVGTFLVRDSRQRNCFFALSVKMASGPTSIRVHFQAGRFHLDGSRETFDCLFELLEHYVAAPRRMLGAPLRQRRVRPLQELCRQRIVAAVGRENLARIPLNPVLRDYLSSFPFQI
Briefly: SOCS1 protein level in spinal cord after SCI, SRP treatment. The format is in vivo. Conditions: 7 days after SCI; once per day beginning one day after SCI.

The test system of assay [7] is spinal cord injury (SCI). Conditions: cited from earlier work.
The subject of assay [8] is chondroitin sulfate proteoglycan (CSPG). Nature of the assay: CSPG expression around the spinal cord lesion after contusive SCI, treatment from one day after SCI. It counts as in vivo, rat. Conditions: two weeks after contusive SCI; treatment starting one day after SCI; vs vehicle. The source says:
(§3) In this Example, the CRP has been applied in a preclinical rat model to test the efficacy of the treatment of spinal cord injury (SCI). The injury was made at thoracic 8 level using contusive injury device. The contusive SCI is the most clinical relevance among all experimental SCI models. We have assessed both motor and bladder control as functional outcomes and analyzed anatomical evidences to support these findings. We also selected sub-acute phase (ONE-DAY after SCI) and chronic phase (TWO-MONTHs after SCI) to start our treatment.
Furthermore CRP can efficiently improve locomotion and bladder electromyography (EMG) activities and voiding patterns after SCI.

The subject of assay [9] is spinal cord injury (SCI). Briefly: Locomotion (BBB 21-point score) and gait after chronic SCI, treatment from two months after SCI. It counts as in vivo, rat.
Description: Basso, Beattie, and Bresnahan (BBB) 21-point scoring test is used as the locomotion assessment after SCI. SCI causes significant deficits on locomotion function as indicated by the significant drop of BBB scores from 21 of the normal rats. […] However, ISP treatment slightly decreases BBB scores from 11.667±0.211 (two months after SCI) to 11.00±0.577 (two months plus 42 days after SCI) (A).
as §3
The above were followed up with studies to evaluate the treatment effects of CRP in chronic SCI. The chronic SCI is not only way more challenge to be repaired but also is the clinical status of the majority of patients with SCI.

Where [10] appears, read: once per day beginning one day after SCI.

Turning to “YGRKKRRQRRR-VQpYSTVVHS-KFERQKILDQRFFE [SRP]”, the “bladder hyperactivity (CMG)” value with spinal cord injury (SCI) [1] (daily for one month beginning one day after SCI) is on record as “significantly reduced bladder hyperactivity”. In addition, in the assay with spinal cord injury (SCI) [1] (vs scrambled peptide), the “EUS EMG bursting activity during the void period” value is listed as “improvement in bursting activity”, the non-voiding contraction amplitude entry is reported as “significantly reduced”, the “number of non-voiding contractions” value is reported as “significantly reduced” and the residual volume result was “significantly reduced”. In assay [2] (setting [10]), the TBK1 protein level result is on record as “significantly increased” and the optineurin protein level result is given as “significantly increased”. In addition, in [2], the “phospho-TBK1 Ser172 (p-TBK1)” value was “significant activation of TBK1 and p62”; the “phosphor-p62 Ser403 (p-p62)” value is “significant activation of TBK1 and p62”. Moreover, the “SCI-upregulated SOCS3 (ratio of SOCS3 to actin)” value in the assay with SOCS3 [3] is “significantly reduced”. Besides, in the assay on arginase 1, iNOS, TNF-α (7 and 14 days post-SCI), the “arginase 1 expression (mRNA)” value was “increased” and the “iNOS expression (mRNA)” value is on record as “decreased”. Also, the “TNF-α expression (mRNA)” value with arginase 1, iNOS, TNF-α (7 days post-SCI) is “decreased”. The “sciatic nerve transection-upregulated SOCS3” value with SOCS3 [4] is reported as “significantly reduced”. Moreover, in assay [5] (treatment for 30 consecutive days beginning one day after SCI), the “SCI-increased ED1+macrophages/microglia” value was “blocked SCI-induced upregulation of ED1+macrophages”. Besides, in [5], the “GFAP+tissues surrounding the lesion epicenter” value is listed as “preserved more GFAP+tissues”. For the same substance, the “phospho-STAT3 Tyr705 (p-STAT3 to STAT3)” value in the assay with STAT3 is “significant activation of STAT3”. Besides, the “hind limb locomotion (BBB)” value in the assay on spinal cord injury (SCI) [6] was “significant improvement in hind limb locomotion”. In the assay with SOCS1, the SOCS1 level entry is listed as “not significantly altered”.

For the substance “intracellular sigma peptide [ISP, reference compound]”, in the assay on spinal cord injury (SCI) [7] (applied immediately after SCI in rats), the “functional recovery after SCI” value is “minor effects on promoting functional recovery”. Also, the “effect on chronic SCI” value with spinal cord injury (SCI) [7] (applied two-month after SCI) is on record as “no effects on chronic SCI”. For the same substance, the “effect on CSPG in vivo” value with spinal cord injury (SCI) [7] (background statement) is given as “no effects on CSPG”. The “CSPG in lesion epicenter and adjacent tissue” value in assay [8] is given as “does not decrease CSPG”. In addition, the BBB score is on record as 11.667±0.211 in the assay on spinal cord injury (SCI) [9] (two months after SCI (start of treatment)) and 11.00±0.577 in the assay on spinal cord injury (SCI) [9] (two months plus 42 days after SCI, treatment starting two months after contusive SCI).
